Results: patent US20210395694A1, “METHOD FOR PROMOTING PRODUCTION OF EXOSOMES AND/OR EXTRACELLULAR VESICLES” (ExoCoBio Inc., priority 2019, published 2021)

Legend:
[1] = test system: Human adipose-derived stem cells; assay: Exosome CD63 content by flow cytometry (PE MFI against a human CD63 standard curve); assay type: cell-based; conditions: CD63 content per mL; compared to the untreated control group; FIG. 3
Method: Human adipose-derived stem cells were suspended in a-MEM culture medium containing 10% fetal bovine serum (FBS), 100 units/mL penicillin and 100 μg/mL streptomycin, and then seeded into a 6-well plate at a density of 6,000 cells/cm^2 and cultured in an incubator at 37° C. under 5% CO2. For ascorbic acid-treated groups, 24 hours after seeding, ascorbic acid was added to the culture medium at a concentration of 10 μg/mL, 30 μg/mL and 100 μg/mL, respectively.
In all of the ascorbic acid-treated groups and the untreated group, when the adipose-derived stem cells reached a confluency of 80% or more, the culture medium was replaced with α-MEM medium containing 100 units/mL penicillin and 100 μg/mL streptomycin (hereinafter referred to as “serum-free medium” or “SFM”), or α-MEM medium containing 2% FBS from which FBS-derived exosomes and extracellular vesicles have been removed, 100 units/mL penicillin and 100 μg/mL streptomycin (hereinafter referred to as “extracellular vesicles-depleted medium” or “EDM”). In the ascorbic acid-treated groups, ascorbic acid was added to each of the serum-free medium and the extracellular vesicles-depleted medium at a concentration of 10 μg/mL, 30 μg/mL and 100 μg/mL, respectively. […] After completion of recovery of the conditioned medium, the cells were counted using a cell counter. […]

[2] = test system: Human adipose-derived stem cells; assay: Nanoparticle tracking analysis (NTA) of exosomes isolated from conditioned medium of stem cells cultured with ascorbic acid; assay type: cell-based
Method: Human adipose-derived stem cells were suspended in a-MEM culture medium containing 10% fetal bovine serum (FBS), 100 units/mL penicillin and 100 μg/mL streptomycin, and then seeded into a 6-well plate at a density of 6,000 cells/cm^2 and cultured in an incubator at 37° C. under 5% CO2. For ascorbic acid-treated groups, 24 hours after seeding, ascorbic acid was added to the culture medium at a concentration of 10 μg/mL, 30 μg/mL and 100 μg/mL, respectively. In all of the ascorbic acid-treated groups and the untreated group, when the adipose-derived stem cells reached a confluency of 80% or more, the culture medium was replaced with α-MEM medium containing 100 units/mL penicillin and 100 μg/mL streptomycin (hereinafter referred to as “serum-free medium” or “SFM”), or α-MEM medium containing 2% FBS from which FBS-derived exosomes and extracellular vesicles have been removed, 100 units/mL penicillin and 100 μg/mL streptomycin (hereinafter referred to as “extracellular vesicles-depleted medium” or “EDM”). […] After completion of recovery of the conditioned medium, the cells were counted using a cell counter. […] The particle size and concentration of the isolated exosomes were measured by nanoparticle tracking analysis (NTA) instrument (purchased from Malvern).

O=C1O[C@H]([C@@H](O)CO)C(O)=C1O [ascorbic acid]
content of the exosomes (i.e., the content of CD63) [1]: remarkably increased
productivity (i.e., the number of exosome particles per mL) ([2]; compared with the control group not treated with ascorbic acid, FIG. 2): increased by approximately four times or more
particle size distribution of the exosomes ([2]; stem cells pre-treated and cultured in medium containing ascorbic acid vs medium not containing ascorbic acid, FIG. 1 (0, 30, 100 μg/mL)): more uniform particle size distribution
